From patent US20130174289A1, “Na+/Mg2+ Exchanger” (FBN - Leibnitz-Institut fur Nutztierbiologie, priority 2010, published 2013)

Assays:
[1] = biological target: SLC41A1-related Na+/Mg2+ exchanger (Homo sapiens, UniProt Q8IVJ1); assay: Modulators of SLC41A1-related Na+/Mg2+ exchanger activity (Table 3); format: cell-based; details: at the dosage given, where given;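 further: listed substances are classed by whether they raise or lower SLC41A1-related Na+/Mg2+ exchanger activity, acting directly on the protein or through cellular signalling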
[2] = biological target: hSLC41A1 (Homo sapiens, UniProt Q8IVJ1); assay: Mg2+ efflux ([Mg2+]i decrease over 20 min) by mag-fura 2 FF-spectrofluorometry in +tet HEK293-(SLC41A1) cells; details: for Mg2+ efflux: Mg2+-free medium, [Na+]e 145 mM; for Effect on SLC41A1-mediated Mg2+ efflux (in words): summary statement
Experimental: Loading of cells with 7.5 μmol.l^−1 mag-fura 2 AM (Molecular Probes, Eugene, Oreg. USA) was performed for 30 minutes at 37° C. in the presence of loading facilitator Pluronic F-127 (Molecular probes). After being washed in CMF-HBS+, cells were incubated for a further 30 minutes at 37° C. to allow for complete de-esterification of the fluorescence probe, washed twice in CMF-HBS+ to remove extracellular mag-fura 2 and stored in CMF-HBS supplemented with 10 mmol.l^−1 HEPES, 5 mmol.l^−1 glucose and 0.4 mmol.l^−1 Mg^2+ until being Mg^2+-loaded before measurements of the Mg^2+ efflux capacity. The latter was determined as the intracellular Mg^2+ concentration ([Mg^2+]i) decrease over a 20-min period. Directly before the efflux experiments, −tet and +tet HEK293-(SLC41A1) were Mg-loaded by a 20-min incubation in CMF-HBS+ containing 0, 2, 5 or 10 mmol.l^−1 Mg. […] After loading, the remaining extracellular Mg^2+ was removed by washing the cells twice in CMF-HBS+ and, after re-suspending the cells in CMF-HBS+, measurements were started. To determine the influence of varying extracellular [Na^+], measuring solutions were prepared by diluting the CMF-HBS+ containing 145 mM Na^+ with appropriate volumes of a completely Na^+- and Mg^2+-free PBS. To investigate the effect of HCO3^− on Mg^2+ efflux, completely Ca^2+- and Mg^2+-free medium 199 completed with 10 mmol.l^−1 HEPES and 1.36 mmol.l^−1 L-glutamine (CMF-M199+) with Hank's (0.35 g/l NaHCO3) or Earl's (2.2 g/l NaHCO3) salts were used during Mg-loading and measurements. To ensure a stable pH value, the high-HCO3^− media were pre-equilibrated with 95% air-5% CO2.
Measurements were made at 37° C. in 3 ml cuvettes containing 2 ml cell suspension (CMF-HBS+ or CMF-M199+ with a cytocrit of 10%) under stirring. [Mg^2+]i was determined by measuring the fluorescence of the probe-loaded cells in a spectrofluorometer (LS50-B, PerkinElmer Life Science, Wellesley, Mass. USA) by using the fast filter accessory, which allowed fluorescence to be measured at 20-ms intervals with excitation at 340 and 380 nm, and emission at 515 nm. [Mg^2+]i values were calculated from the 340/380-nm ratio according to the formula of Grynkiewicz et al. (1981) by using the software FL WinLab version 4.0 (PerkinElmer Life Science). A dissociation constant of 1.5 mmol.l^−1 for the mag-fura 2/Mg^2+ complex was used for calculations; minimum (Rmin) and maximum (Rmax) ratios were determined at the end of each experiment by using digitonin. Rmax was found by the addition of 25 mmol.l^−1 MgCl2 in the absence of Ca^2+, whereas Rmin was obtained by addition of 50 mmol.l^−1 EDTA, pH 7.2, to remove all Mg^2+ from the solution. For data evaluation, 10-second data sets each were averaged at the beginning of the measurement and then always after 50 seconds. The final [Mg^2+]i was determined as the mean [Mg^2+]i of the last 10 seconds of the measurement. Thus, for the calculation of any given [Mg^2+]i, 500 data points were used. If not otherwise stated, data are presented as means±standard error (SE).

[3] = tested on: HEK293-(SLC41A1) cells; assay: Proliferation (cell index) of HEK293-(SLC41A1) cells; details: imipramine 250 μM, dB-cAMP 100 μM, added 24 hours after seeding; compared to controls

Sequence of SLC41A1-related Na+/Mg2+ exchanger (Q8IVJ1 whole entry): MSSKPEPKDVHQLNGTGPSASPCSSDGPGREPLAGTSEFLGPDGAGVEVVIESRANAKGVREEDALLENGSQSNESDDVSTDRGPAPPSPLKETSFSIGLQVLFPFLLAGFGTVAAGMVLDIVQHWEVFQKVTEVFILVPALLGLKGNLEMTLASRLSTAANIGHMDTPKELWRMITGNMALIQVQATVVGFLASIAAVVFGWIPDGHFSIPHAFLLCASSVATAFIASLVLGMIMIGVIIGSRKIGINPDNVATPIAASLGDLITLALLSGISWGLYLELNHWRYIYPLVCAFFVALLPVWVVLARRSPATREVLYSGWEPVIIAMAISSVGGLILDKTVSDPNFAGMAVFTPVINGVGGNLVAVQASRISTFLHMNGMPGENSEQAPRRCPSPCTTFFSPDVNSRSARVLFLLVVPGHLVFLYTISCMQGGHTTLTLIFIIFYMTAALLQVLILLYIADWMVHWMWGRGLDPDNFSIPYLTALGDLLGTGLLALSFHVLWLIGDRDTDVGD
Sequence of hSLC41A1 (Q8IVJ1 whole entry): as above

Effect on Na+/Mg2+ exchanger [1]	Compound	other results
activation	Nc1ncnc2c1nc(Cl)n2[C@@H]1O[C@@H]2COP(=O)(O)O[C@H]2[C@H]1O [8-Cl-cAMP]	
activation	Nc1nc2c(nc(Br)n2[C@@H]2O[C@@H]3COP(=O)(O)O[C@H]3[C@H]2O)c(=O)[nH]1 [8-bromo-cyclic GMP]	
activation	C[C@]12CCC(=O)C=C1CC[C@@H]1[C@@H]2[C@@H](O)C[C@]2(C=O)[C@@H](C(=O)CO)CC[C@@H]12 [Aldosterone]	
Inhibition	N=C(N)NC(=O)c1nc(Cl)c(N)nc1N [Amiloride, 3,5-diamino-6-chloro-N-(diaminomethylidene)pyrazine-2-carbox-amide]	
activation	CCCCC/C=C\C/C=C\C/C=C\C/C=C\CCCC(=O)O [Arachidonic acid, (5Z,8Z,11Z,14Z)-icosa-5,8,11,14-tetraenoic acid]	
Inhibition	N/C(=N\C(=O)c1nc(Cl)c(N)nc1N)NCc1ccccc1 [Benzamil, 3,5-diamino-N-[(1E)-amino(benzylamino)methylidene]-6-chloropyrazine-2-carboxamide]	
Inhibition	O=S(=O)([O-])c1cc(N=C=S)ccc1CCc1ccc(N=C=S)cc1S(=O)(=O)[O-].[Na+].[Na+] [DIDS, 4′,4′-diisothiocyanatodihydrostilbene-′,2′-disulfonic acid, disodium salt]	
activation	C=C[C@@]1(C)CC(=O)[C@]2(O)[C@@]3(C)[C@@H](O)CCC(C)(C)[C@@H]3[C@H](O)[C@H](OC(C)=O)[C@@]2(C)O1 [Forskolin, [(3R,4aR,5S,6S,6aS,10S,10aR,10bS)-3-ethenyl-6,10,10b-trihydroxy-3,4a,7,7,10a-pentamethyl-1-oxo-5,6,6a,8,9,10-hexahydro-2H-benzo[f]chromen-5-yl] acetate]	
inhibition	O=c1c(-c2ccc(O)cc2)coc2cc(O)cc(O)c12 [Genistein, 5,7-dihydroxy-3-(4-hydroxyphenyl)chromen-4-one]	
Inhibition	CN(C)CCCN1c2ccccc2CCc2ccccc21 [Imipramine, 10,11-Dihydro-N,N-dimethyl-5H-dibenz-[b,f]azepin-5-propanamin]	Mg2+ efflux ([2]; 250 μM, Mg2+-loaded (20 min, 10 mM) +tet HEK293-(SLC41A1) cells, without inhibitor 341±35): 129±32 μM/20 min; Effect on SLC41A1-mediated Mg2+ efflux (in words) [2]: strongly decrease; Effect on proliferation of SLC41A1-overexpressing cells (in words) [3]: reduced the proliferation
activation	COc1ccc2c(c1)c(CC(=O)O)c(C)n2C(=O)c1ccc(Cl)cc1 [Indomethacin, 2-[1-(4-chlorobenzoyl)-5-methoxy-2-methylindol-3-yl]acetic acid]	
Inhibition	CS(=O)(=O)O.N=C(N)SCCc1ccc(OCc2ccc([N+](=O)[O-])cc2)cc1 [KB-R7943, 2-(2-(4-(4-nitrobenzyloxy)-phenyl)ethyl)isothiourea methanesulfonate]	
inhibition	CNC(=N)NCCC[C@H](N)C(=O)O [L-NMMA, NG-monomethyl-L-arginine]	
activation	COCC(/C(C)=C/C(=N\O)C(N)=O)[N+](=O)[O-] (stereo not shown) [NOR1, (E)-4-methyl-2-[(E)-hydoxyimino]-5-nitro-6-methoxy-3-hexenamide]	
Inhibition	COC(=O)C1=C(C)NC(C)=C(C(=O)OC)C1c1ccccc1[N+](=O)[O-] [Nifedipine, 3,5-dimethyl 2,6-dimethyl-4-(2-nitrophenyl)-1,4-di-hydropyridine-3,5-di-carboxylate]	
activation	CCCCC[C@H](O)/C=C/[C@H]1[C@H](O)CC(=O)[C@@H]1C/C=C\CCCC(=O)O [PGE2, (Z)-7-[(1R,2R,3R)-3-hydroxy-2-[(E,3S)-3-hydroxyoct-1-enyl]-5-oxocyclopentyl]hept-5-enoic acid]	
Inhibition	C=CC1CN2CCC1CC2C(O)c1ccnc2ccc(OC)cc12 (stereo not shown) [Quinidin, (2-ethenyl-4-azabicyclo [2.2.2]oct-5-yl)-(6-methoxyquinolin-4-yl)-methanol]	Mg2+ efflux ([2]; 100 μM quinidin, Mg2+-loaded (10 mM) +tet HEK293-(SLC41A1) cells, without inhibitor 327±71): 176±0.5 μM/20 min; Effect on SLC41A1-mediated Mg2+ efflux (in words) [2]: strongly decrease
Inhibition	CCOc1ccc(Oc2ccc(OCc3cc(F)ccc3F)cc2)c(N)c1 [SEA0400, 2-[4-[(2,5-difluoro-phenyl)methoxy]phenoxy]-5-ethoxyaniline]	
inhibition	NCCS(=O)(=O)O [Taurine, 2-aminoethanesulfonic acid]	
activation	CCCC(=O)Nc1ncnc2c1ncn2[C@@H]1O[C@@H]2COP(=O)(O)O[C@H]2[C@H]1OC(=O)CCC [dibutyryl-cAMP]	increase of SLC41A1-related Mg2+ efflux ([2]; dB-cAMP 100 μM, loading in 0 mM-Mg2+ solution, +tet cells): 36%; increase of SLC41A1-related Mg2+ efflux ([2]; dB-cAMP 100 μM, loading in 2 mM-Mg2+ solution, +tet cells): 13%; decrease of SLC41A1-related Mg2+ efflux ([2]; dB-cAMP 100 μM, loading in 10 mM-Mg2+ solution, +tet cells): 17%; Effect on SLC41A1-mediated Mg2+ efflux (in words) [2]: stimulated; Effect on proliferation of SLC41A1-overexpressing cells (in words) [3]: stimulation of their proliferation
activation	CC(C)NCC(O)c1ccc(O)c(O)c1 (stereo not shown) [isoproterenol]	
inhibition	C[C@]12CC[C@H](O)C[C@H]1CC[C@@H]1[C@@H]2CC[C@]2(C)[C@@](O)(c3ccoc3)CC[C@]12O [rostafuroxin]	
activation	Angiotensin II: hormone; vasoactive agent, vasoconstriction (via AT 1 receptor) (DRVYIHPF; Angiotensin-2; UniProt P01019 25-32, looked up)	stimulation of SLC41A1-related Mg2+ efflux [2]: 19.5%; Effect on SLC41A1-mediated Mg2+ efflux (in words) [2]: stimulated
activation	Glucagon: hormone; modulator listed in Table 3	
inhibition	Insulin: hormone (via insulin receptor)	Effect on SLC41A1-mediated Mg2+ efflux (in words) [2]: inhibitory effect
inhibition	epidermal growth factor (EGF): mitogen	

Compound	Effect on Na+/Mg2+ exchanger [1]	other results
COc1c(O)c2c(=O)cc(OC)c3c4c(OC)cc(=O)c5c(O)c(OC)c(CC(C)OC(=O)c6ccccc6)c(c(c1CC(C)OC(=O)Oc1ccc(O)cc1)c23)c54 (stereo not shown) [Calphostin C, 1-[3,10-dihydroxy-12-[2-(4-hydroxyphenoxy)-carbonyloxypropyl]-2,6,7,11-tetramethoxy-4,9-dioxoperylen-1-yl]propan-2-yl benzoate]	inhibition	
CCN(CC)CC(=O)Nc1c(C)cccc1C [Lidocaine, 2-(diethylamino)-N-(2,6-dimethylphenyl)-acetamide]	Inhibition	
NC[C@H](O)c1ccc(O)c(O)c1 [Norepinephrine]	activation	
O=c1onc2cnc3ccccc3n12 [ODQ, 1H-[1,2,4]oxadiazolo[4,3-α]quinoxaline-1]	inhibition	
C[C@@H]1O[C@@H](O[C@H]2C[C@@H](O)[C@]3(CO)[C@H]4[C@H](O)C[C@]5(C)[C@@H](C6=CC(=O)OC6)CC[C@]5(O)[C@@H]4CC[C@]3(O)C2)[C@H](O)[C@H](O)[C@H]1O [Ouabain]	inhibition	
CCCC(=O)O[C@@H]1[C@@H](C)[C@@]2(O)[C@@H](C=C(CO)C[C@]3(O)C(=O)C(C)=C[C@@H]23)[C@@H]2C(C)(C)[C@]12OC(=O)CCC [Phorbol 12,13-dibutyrate]	activation	
Nc1ncnc2c1ncn2[C@@H]1O[C@@H]2COP(O)(=S)O[C@H]2[C@H]1O (stereo partly shown) [Rp-cAMP]	inhibition	
C[C@@H]1C[C@@]2(NC(=O)CS2)[C@]2(O)O[C@@H]3C[C@@]4(CO)[C@@H](CC[C@@H]5[C@@H]4CC[C@]4(C)[C@@H](C6=CC(=O)OC6)CC[C@]54O)C[C@H]3O[C@@H]2O1 [UNBS-1450]	inhibition	
C[C@]12CC[C@H](O)C[C@@]1(O)CC[C@@H]1[C@@H]2CC[C@]2(C)[C@@H](c3ccc(=O)oc3)C[C@H]3O[C@]132 [marinobufagenin]	inhibition	
CO[C@H]1C[C@H](O[C@H]2CC[C@@]3(C)[C@H](CC[C@@H]4[C@@H]3CC[C@]3(C)[C@@H](C5=CC(=O)OC5)[C@@H](OC(C)=O)C[C@]43O)C2)O[C@@H](C)[C@@H]1O [oleandrin]	inhibition	
